Measurements from patent publication US8338401B2, “Coumarin-amide derivatives and its preparation, said drug composition and its use” (Institute of Materia Medica Chinese Academy of Medical …, priority 2002, dated 2012).
In brackets after ≈: the same amount, converted by molar mass. Where two headings read alike, the source gives them in different places. Blank lines part the entries; values can stand above or below the compound they belong to.

Legend:
[1] = test system: chronic renal failure induced by 5/6 nephrectomy in rats; format: in vivo, Male Wistar rats
Procedure: The model on chronic renal failure induced by partial renal ablation in rats was set up according to the Guidelines of Pre-clinic Research for New Drugs. Male Wistar rats with initial body weights of 200 g, anesthetized with 35 mg/kg of pentobarbital i.p., the right kidney was removed, and the upper and lower pole […] of the left kidney were resected, stop bleeding, closed the abdominal and sutured. Four weeks following surgery, the BUN, creatinine and urinary protein in rats were determined. […] Rats were randomly divided into seven groups, 30/group, with sham, model, Benazepril (4 mg/kg/day) and Losartan (10 mg/kg/day) as positive control, and compound 149 groups (7.5 mg/kg/day, 15 mg/kg/day and 30 mg/kg/day, respectively). All the groups were administered intragastrically, once per day and 6 (six) times per week, till 16 weeks post surgery. Body weights were weighed to observe the growth of the rats. The above indexes were determined every 4 weeks up to the 16th week following the initiation of drug administration, and at each time, a number of animals were sacrificed and the kidneys were harvested for pathological analysis. Pathological lesions in chronic renal failure models are mainly glomerulosclerosis and interstitial fibrosis. According to the damage extents, glomerulosclerosis is divided into five grades (0 IV). 0 grade means no glomerulus pathological changes at all, and IV grade means ultimately glomerular sclerosis and glassy pathological changes.

[2] = test system: kidney tubulointerstitial fibrosis caused by unilateral ureteral obstruction (UUO) in rats; test: Inhibition of kidney tubulointerstitial fibrosis caused by unilateral ureteral obstruction (UUO) in rats; format: in vivo, Male Wistar rats; conditions: UUO rats; for BUN: oral for 16 days
Procedure: Male Wistar rats with initial body weights of 180˜230 g were used. Unilateral ureteral obstruction was performed under pentobarbital anesthesia (35 mg/kg) and sterile conditions. Via a midline incision, the left ureteral was ligated. Sham surgery was performed by making a midline incision but leaving ureteral intact. Following surgery, rats were randomly divided into sham, model, Benazepril (4 mg/kg/day) and Losartan (10 mg/kg/day) as positive control, and compound 149 (5 mg/kg/day, 10 mg/kg/day and 20 mg/kg/day). Starting 2 day before surgery, Benazepril, Losartan and compound 149 were administered for 16 days orally. BUN and creatinine in serum were determined in the 11th and 16th day (Table 6) following initiation of Benazepril, Losartan and compound 149 treatment, at which time animals were killed and the kidneys were harvested. Tissues were dissected, weighed, fixed in 10% formaldehyde and embedded in paraffin wax for pathological analysis.

[3] = test system: TGF-β receptor; test: TGF-β receptor binding antagonism assay ([125I]TGF-β1) in Balb/c 3T3 cells; conditions: for Inhibition Rate (%): 10 μg/ml, 50 pmol/L [125I]TGF-β1
Procedure: Balb/c 3T3 cells were seeded in 24 well-plate and cultured in Dulbecco's modified Eagle's medium (DMEM) supplemented with 10% fetal bovine serum, in 37° C. and 5% CO2, for 2-4 days. When cells were at a near-confluent, medium was changed to the binding buffer (50 mmol/L HEPES containing NaCl, KCl, MgSO4 and CaCl2). The assay was initiated by addition of 50 pmol/L [^125I]TGF-β1 and test compounds. After incubation for 210-240 minutes, the medium was removed, and cells were washed with ice-cold binding buffer. Non-specific bindings in the presence of 10 nmol/L TGF-β1 were determined. The cells were then solubilized using buffer containing Triton X-100 and the radioactivity was measured (see Table 4).

[4] = 8th week after administration (12 weeks after nephrectomy), 4 mg/kg
[5] = 8th week after administration (12 wk after nephrectomy), 4 mg/kg
[6] = 12th week after administration (16 weeks after nephrectomy), 4 mg/kg
[7] = 12th week after administration (16 wk after nephrectomy), 4 mg/kg
[8] = 16 weeks after nephrectomy (12 weeks since administration), 4 mg/kg/day
[9] = 8th week after administration (12 weeks after nephrectomy), 10 mg/kg
[10] = 8th week after administration (12 wk after nephrectomy), 10 mg/kg
[11] = 12th week after administration (16 weeks after nephrectomy), 10 mg/kg
[12] = 12th week after administration (16 wk after nephrectomy), 10 mg/kg

Structure (SMILES): CCOC(=O)c1cc2cc([N+](=O)[O-])c(O)c([N+](=O)[O-])c2oc1=O
melting point: 176 °C

Structure (SMILES): CCOC(=O)c1cc2cc([N+](=O)[O-])c(OC)c([N+](=O)[O-])c2oc1=O
melting point: 152 °C

Structure (SMILES): CCOC(=O)[C@H](CCc1ccccc1)N[C@H]1CCc2ccccc2N(CC(=O)O)C1=O [Benazepril, reference compound]
BUN [1, 4]: 37.66 ± 8.895 mg/dL | serum creatinine (Scr.) [1, 4]: 3.54 ± 1.140 mg/dL | AII (Angiotensin II) [1, 5]: 74.3 ± 13.2 pg/mL | UP (urinary protein) [1, 5]: 51.1 ± 23.6 mg/day | serum TGF-β1 [1, 5]: 40.9 ± 26.6 ng/mL | Glomerulosclerosis Grade (%): 0 ([1]; 8 wk after ad., 4 mg/kg/day): 12.2 ± 19.0% | Glomerulosclerosis Grade (%): I ([1]; 8 wk after ad., 4 mg/kg/day): 29.6 ± 23.9% | Glomerulosclerosis Grade (%): II ([1]; 8 wk after ad., 4 mg/kg/day): 28.1 ± 18.1% | Glomerulosclerosis Grade (%): III ([1]; 8 wk after ad., 4 mg/kg/day): 19.6 ± 24.2% | Glomerulosclerosis Grade (%): IV ([1]; 8 wk after ad., 4 mg/kg/day): 5.9 ± 11.2% | Glomerulosclerosis Total Grade ([1]; 8 wk after ad., 4 mg/kg/day): 5.5 ± 2.6 | BUN [1, 6]: 39.48 ± 7.109 mg/dL | serum creatinine (Scr.) [1, 6]: 2.28 ± 0.70 mg/dL | AII (Angiotensin II) [1, 7]: 47.8 ± 12.0 pg/mL | UP (urinary protein) [1, 7]: 66.3 ± 31.9 mg/day | serum TGF-β1 [1, 7]: 12.8 ± 14.8 ng/mL | inflammatory cell infiltration in kidney tissues ([1]; 12 weeks after nephrectomy (8 weeks since administration), 4 mg/kg/day, some animals): severe | Glomerulosclerosis Grade (%): 0 ([1]; 12 wk after ad., 4 mg/kg/day): 0% | Glomerulosclerosis Grade (%): I ([1]; 12 wk after ad., 4 mg/kg/day): 0% | Glomerulosclerosis Grade (%): II ([1]; 12 wk after ad., 4 mg/kg/day): 19.1 ± 27.1% | Glomerulosclerosis Grade (%): III ([1]; 12 wk after ad., 4 mg/kg/day): 46.2 ± 15.6% | Glomerulosclerosis Grade (%): IV ([1]; 12 wk after ad., 4 mg/kg/day): 34.8 ± 29.9% | Glomerulosclerosis Total Grade ([1]; 12 wk after ad., 4 mg/kg/day): 9.8 ± 1.4 | glomerulus pathological score, rank among groups [1, 8]: the highest | inflammatory cell infiltration in kidney matrix [1, 8]: medium-severe | inflammatory cell infiltration and tubulointerstitial fibrosis (pathological changes) [2]: more significant | animals with focal abscess formations in the medulla of kidney ([2]; 4 mg/kg/day): 4/7 | BUN ([2]; 4.0 mg/kg): 20.99 ± 1.58 mg/dL

Structure (SMILES): CCc1cc2cc(C(=O)Nc3ccc(O)c(C(=O)O)c3)c(=O)oc2cc1OC [Compound 27, 3-(3′-carboxy-4′-hydroxy-phenylamidocarbonyl)-6-ethyl-7-methoxy-coumarin]
Inhibition Rate (%) [3]: 77.2%

Structure (SMILES): COc1ccc2cc(C(=O)Nc3ccc(S(=O)(=O)Nc4cc(C)on4)cc3)c(=O)oc2c1C [Compound 55]
Inhibition Rate (%) [3]: 52.3%

Structure (SMILES): COc1ccc2cc(C(=O)Nc3ccc(S(=O)(=O)NC(=N)N)cc3)c(=O)oc2c1OC [Compound 66, 3-(4′-guanidinosulfonylphenylamidocarbonyl)-7,8-dimethoxy-coumarin]
Inhibition Rate (%) [3]: 52.3%

Structure (SMILES): COc1cc2oc(=O)c(C(=O)Nc3ccc(C(=O)O)c(O)c3)cc2cc1Cl [Compound 87, 3-(3′-hydroxy-4′-carboxy-phenylamidocarbonyl)-6-chloro-7-methoxy-coumarin]
Inhibition Rate (%) [3]: 91.1%

Structure (SMILES): COc1cc2oc(=O)c(C(=O)Nc3ccc(S(=O)(=O)NC(=N)N)cc3)cc2cc1Cl [Compound 92, 3-(4′-guanidinosulfonylphenylamidocarbonyl)-6-chloro-7-methoxy-coumarin]
Inhibition Rate (%) [3]: 106.4%

Structure (SMILES): COc1cc2oc(=O)c(C(=O)Nc3ccc(C(=O)O)c(O)c3)cc2cc1Br [Compound 96, 3-(3′-hydroxy-4′-carboxy-phenylamidocarbonyl)-6-bromo-7-methoxy-coumarin]
Inhibition Rate (%) [3]: 82.3%

Structure (SMILES): COc1ccc2cc(-c3nnc(-c4ccccc4)o3)c(=O)oc2c1 [Compound 206, 3-(2′-phenyl-1′,3′,4′-oxadiazol-5′yl)-7-methoxycoumarin]
Inhibition Rate (%) [3]: −0.7%

Structure (SMILES): CCCCc1nc(Cl)c(CO)n1Cc1ccc(-c2ccccc2-c2nn[nH]n2)cc1 [Losartan, reference compound]
BUN [1, 9]: 25.64 ± 5.116 mg/dL | serum creatinine (Scr.) [1, 9]: 2.34 ± 0.268 mg/dL | AII (Angiotensin II) [1, 10]: 96.7 ± 32.1 pg/mL | UP (urinary protein) [1, 10]: 32.7 ± 10.3 mg/day | serum TGF-β1 [1, 10]: 18.7 ± 9.2 ng/mL | Glomerulosclerosis Grade (%): 0 ([1]; 8 wk after ad., 10 mg/kg/day): 54.4 ± 29.2 % | Glomerulosclerosis Grade (%): I ([1]; 8 wk after ad., 10 mg/kg/day): 31.9 ± 20.0% | Glomerulosclerosis Grade (%): II ([1]; 8 wk after ad., 10 mg/kg/day): 13.7 ± 14.0% | Glomerulosclerosis Grade (%): III ([1]; 8 wk after ad., 10 mg/kg/day): 1.1 ± 3.3 % | Glomerulosclerosis Grade (%): IV ([1]; 8 wk after ad., 10 mg/kg/day): 0% | Glomerulosclerosis Total Grade ([1]; 8 wk after ad., 10 mg/kg/day): 2.8 ± 1.0 | BUN [1, 11]: 37.84 ± 5.672 mg/dL | serum creatinine (Scr.) [1, 11]: 2.21 ± 0.48 mg/dL | AII (Angiotensin II) [1, 12]: 38.9 ± 17.4 pg/mL | UP (urinary protein) [1, 12]: 39.3 ± 14.2 mg/day | serum TGF-β1 [1, 12]: 11.8 ± 12.6 ng/mL | Glomerulus pathological scores, compared with the model group ([1]; 12 weeks after nephrectomy (8 weeks since administration), compound 149 30 mg/kg, Losartan 10 mg/kg/day): less than that of the model group significantly | rates of 0 grade glomerylus in residual kidney, compared with the model group ([1]; 12 weeks after nephrectomy (8 weeks since administration), compound 149 30 mg/kg, Losartan 10 mg/kg/day, P<0.05): higher than that of the model group with significant difference | Glomerulosclerosis Grade (%): 0 ([1]; 12 wk after ad., 10 mg/kg/day): 0% | Glomerulosclerosis Grade (%): I ([1]; 12 wk after ad., 10 mg/kg/day): 10.0 ± 2.9% | Glomerulosclerosis Grade (%): II ([1]; 12 wk after ad., 10 mg/kg/day): 45.7 ± 17.7% | Glomerulosclerosis Grade (%): III ([1]; 12 wk after ad., 10 mg/kg/day): 41.9 ± 25.6% | Glomerulosclerosis Grade (%): IV ([1]; 12 wk after ad., 10 mg/kg/day): 2.8 ± 4.8% | Glomerulosclerosis Total Grade ([1]; 12 wk after ad., 10 mg/kg/day): 7.2 ± 1.3 | number of grade III glomerulus, compared with the model group ([1]; 16 weeks after nephrectomy (12 weeks since administration), compound 149 30 mg/kg (P<0.01), Losartan 10 mg/kg/day (P<0.05)): less than that of the model group significantly | inflammatory cell infiltration and tubulointerstitial fibrosis (pathological changes) [2]: significantly attenuated | BUN ([2]; 10.0 mg/kg): 23.88 ± 2.94 mg/dL

The next lines start with results.

melting point: > 300 °C | IC50 [3]: 13.8 µg/mL (≈ 40.7 µM)
Structure (SMILES): COc1ccc2cc(C(=O)Nc3cccc(C(=O)O)c3)c(=O)oc2c1 [Compound 2, 3-(m-carboxyphenylamidocarbonyl)-7-methoxycoumarin]
Inhibition Rate (%) [3]: 74.1%

melting point: 279 °C (dec.) | IC50 [3]: 7.8 µg/mL (≈ 22 µM)
Structure (SMILES): COc1ccc2cc(C(=O)Nc3ccc(C(=O)O)c(O)c3)c(=O)oc2c1 [Compound 7, 3-(3′-hydroxy-4′-carboxyphenylamidocarbonyl)-7-methoxy coumarin]
Inhibition Rate (%) [3]: 94.2%

melting point: 266 °C | IC50 [3]: 8.5 µg/mL (≈ 22.2 µM)
Structure (SMILES): CCc1cc2cc(C(=O)Nc3ccc(C(=O)O)c(O)c3)c(=O)oc2cc1OC [Compound 26, 3-(3′-hydroxy-4′-carboxy-phenylamidocarbonyl)-6-ethyl-7-methoxy-coumarin]
Inhibition Rate (%) [3]: 95.4%

melting point: > 300 °C | IC50 [3]: 5.3 µg/mL (≈ 13.6 µM)
Structure (SMILES): COc1cc2oc(=O)c(C(=O)Nc3ccc(O)c(C(=O)O)c3)cc2cc1Cl [Compound 88, 3-(3′-carboxy-4′-hydroxy-phenylamidocarbonyl)-6-chloro-7-methoxy-coumarin]
Inhibition Rate (%) [3]: 111.2%

melting point: 191 °C
Structure (SMILES): CCOC(=O)c1cc2cc([N+](=O)[O-])c(OC)c(OC)c2oc1=O [Compound 227, 3-ethoxycarbonyl-6-nitro-7,8-dimethoxy-coumarin]

melting point: 143 °C
Structure (SMILES): CCOC(=O)c1cc2cc(CC)c(O)c([N+](=O)[O-])c2oc1=O [Compound 233, 3-ethoxycarbonyl-6-ethyl-7-hydroxy-8-nitro-coumarin]

melting point: 195 °C
Structure (SMILES): CCOC(=O)c1cc2cc(Cl)c(O)c([N+](=O)[O-])c2oc1=O [Compound 241, 3-ethoxycarbonyl-6-chloro-7-hydroxy-8-nitro-coumarin]
